Source: ChEMBL document CHEMBL1124295, “Synthesis and oral antiallergic activity of carboxylic acids derived from imidazo[2,1-c][1,4]benzoxazines, imidazo[1,2-a]quinolines, imidazo[1,2-a]quinoxalines, imidazo[1,2-a]quinoxalinones, pyrrolo[1,2-a]quinoxalinones, pyrrolo[2,3-a]quinoxalinones, and imidazo[2,1-b]benzothiazoles” (1988)
Active and inactive are the calls of the source. No cut-off for these calls is given here.

How the values were obtained:
[1] = system: Rattus norvegicus; test: Inhibition of the IgE-mediated passive cutaneous anaphylaxis (PCA) reaction in rat after oral administration; Range 0.3-10.04; format: functional
[2] = system: Rattus norvegicus; test: Inhibition of the IgE-mediated passive cutaneous anaphylaxis (PCA) reaction in rat after intravenous administration; Range 1.61-7; format: functional
[3] = system: Rattus norvegicus; test: Inhibition of the IgE-mediated passive cutaneous anaphylaxis (PCA) reaction in rat after oral administration; Inactive at 1 and 10 mg/kg; format: functional, organism-based; set-up: dose 10 mg/kg
[4] = system: Rattus norvegicus; test: Inhibition of the IgE-mediated passive cutaneous anaphylaxis (PCA) reaction in rat after oral administration; NA means inactive at 1 and 10 mg/Kg; format: functional, organism-based
[5] = system: Rattus norvegicus; test: Inhibition of the IgE-mediated passive cutaneous anaphylaxis (PCA) reaction in rat after intravenous administration; NA means inactive at 1 and 10 mg/Kg; format: functional, organism-based
[6] = system: Rattus norvegicus; test: Inhibition of the IgE-mediated passive cutaneous anaphylaxis (PCA) reaction in rat after oral administration; Inactive(50% inhibition at 10 mg/kg); format: functional
[7] = system: Rattus norvegicus; test: Inhibition of the IgE-mediated passive cutaneous anaphylaxis (PCA) reaction in rat after oral administration; NA means Inactive; format: functional, organism-based
[8] = system: Rattus norvegicus; test: Inhibition of the IgE-mediated passive cutaneous anaphylaxis (PCA) reaction in rat after intravenous administration; Range 1.04-1.42; format: functional
[9] = system: Rattus norvegicus; test: Inhibition of the IgE-mediated passive cutaneous anaphylaxis (PCA) reaction in rat after oral administration; Inactive(45% inhibition at 20 mg/kg); format: functional
[10] = system: Rattus norvegicus; test: Inhibition of the IgE-mediated passive cutaneous anaphylaxis (PCA) reaction in rat after intravenous administration; Range 0.058-0.12; format: functional
[11] = system: Rattus norvegicus; test: Inhibition of the IgE-mediated passive cutaneous anaphylaxis (PCA) reaction in rat after oral administration; Range 0.025-0.282; format: functional
[12] = system: Rattus norvegicus; test: Inhibition of the IgE-mediated passive cutaneous anaphylaxis (PCA) reaction in rat after intravenous administration; Range 0.005-0.033; format: functional
[13] = system: Rattus norvegicus; test: Inhibition of the IgE-mediated passive cutaneous anaphylaxis (PCA) reaction in rat after intravenous administration; Inactive; format: functional, organism-based
[14] = system: Rattus norvegicus; test: Inhibition of the IgE-mediated passive cutaneous anaphylaxis (PCA) reaction in rat after intravenous administration; Range 0.04-0.154; format: functional
[15] = system: Rattus norvegicus; test: Inhibition of the IgE-mediated passive cutaneous anaphylaxis (PCA) reaction in rat after oral administration; Range 4.65-18.7; format: functional
[16] = system: Rattus norvegicus; test: Inhibition of the IgE-mediated passive cutaneous anaphylaxis (PCA) reaction in rat after intravenous administration; NA means inactive; format: functional, organism-based
[17] = system: Rattus norvegicus; test: Inhibition of the IgE-mediated passive cutaneous anaphylaxis (PCA) reaction in rat after intravenous administration; Range 0.20-0.35; format: functional
[18] = system: Rattus norvegicus; test: Inhibition of the IgE-mediated passive cutaneous anaphylaxis (PCA) reaction in rat after intravenous administration; Range 0.023-0.11; format: functional
[19] = system: Rattus norvegicus; test: Inhibition of the IgE-mediated passive cutaneous anaphylaxis (PCA) reaction in rat after intravenous administration; Range 0.022-0.04; format: functional
[20] = system: Rattus norvegicus; test: Inhibition of the IgE-mediated passive cutaneous anaphylaxis (PCA) reaction in rat after oral administration; Range 0.07-0.4; format: functional
[21] = system: Rattus norvegicus; test: Inhibition of the IgE-mediated passive cutaneous anaphylaxis (PCA) reaction in rat after intravenous administration; Range 0.021-0.033; format: functional
[22] = system: Rattus norvegicus; test: Inhibition of the IgE-mediated passive cutaneous anaphylaxis (PCA) reaction in rat after oral administration; Range 0.74-2.02; format: functional
[23] = system: Rattus norvegicus; test: Inhibition of the IgE-mediated passive cutaneous anaphylaxis (PCA) reaction in rat after intravenous administration; Range 0.19-0.59; format: functional
[24] = system: Rattus norvegicus; test: Inhibition of the IgE-mediated passive cutaneous anaphylaxis (PCA) reaction in rat after intravenous administration; Range 2.20-3.00; format: functional
[25] = system: Rattus norvegicus; test: Inhibition of the IgE-mediated passive cutaneous anaphylaxis (PCA) reaction in rat after intravenous administration; Range 0.057-0.091; format: functional
[26] = system: Rattus norvegicus; test: Inhibition of the IgE-mediated passive cutaneous anaphylaxis (PCA) reaction in rat after oral administration; Range 0.54-0.9; format: functional
[27] = system: Rattus norvegicus; test: Inhibition of the IgE-mediated passive cutaneous anaphylaxis (PCA) reaction in rat after intravenous administration; Range 0.05-0.15; format: functional
[28] = system: Rattus norvegicus; test: Inhibition of the IgE-mediated passive cutaneous anaphylaxis (PCA) reaction in rat after oral administration; Range 0.4-2.34; format: functional
[29] = system: Rattus norvegicus; test: Inhibition of the IgE-mediated passive cutaneous anaphylaxis (PCA) reaction in rat after oral administration; NA means inactive 1 and 10 mg/kg; format: functional, organism-based; set-up: dose 10 mg/kg
[30] = system: Rattus norvegicus; test: Inhibition of the IgE-mediated passive cutaneous anaphylaxis (PCA) reaction in rat after intravenous administration; Inactive at 1 and 10 mg/kg; format: functional, organism-based; set-up: dose 10 mg/kg
[31] = system: Rattus norvegicus; test: Inhibition of the IgE-mediated passive cutaneous anaphylaxis (PCA) reaction in rat after oral administration; Inactive at 10 mg/kg; format: functional, organism-based; set-up: dose 10 mg/kg
[32] = system: Rattus norvegicus; test: Inhibition of the IgE-mediated passive cutaneous anaphylaxis (PCA) reaction in rat after intravenous administration; Range 2.91-4.95; format: functional

SMILES: CCOC(=O)c1cn2c(cc(Cl)c3ccc(Cl)cc32)n1
- ED50 [1]: 1.49 mg/kg

SMILES: CCC1Oc2ccccc2-n2cc(C(=O)O)nc21 (stereo not given)
- ED50 [2]: 2.6 mg/kg

SMILES: COc1ccc2c(OC)cc3nc(C(=O)O)cn3c2c1
- ED50 [3]: inactive

SMILES: NC(=O)c1cn2c(ccc3ccccc32)n1
- ED50 [4]: inactive

SMILES: CCOC(=O)c1c(C(=O)OC)nc2n1-c1ccccc1OC2
- ED50 [5]: inactive

SMILES: COC(=O)c1nc2n(c1C(=O)O)-c1ccccc1OC2
- ED50 [5]: inactive

SMILES: COc1ccc2c(OC(C)C)cc3nc(C(=O)O)cn3c2c1
- inhibition in vivo at 10 mg/kg [6]: 50%

SMILES: O=C([O-])c1cc(=O)c2c(OCC(O)COc3cccc4oc(C(=O)[O-])cc(=O)c34)cccc2o1.[Na+].[Na+] [CROMOLYN SODIUM]
- ED50 [7]: inactive
- ED50 [8]: 1.21 mg/kg

SMILES: O=C(O)c1nc2n(c1CO)-c1ccccc1OC2
- ED50 [4]: inactive

SMILES: O=C(O)c1nnn2c1c(O)nc1ccccc12
- inhibition in vivo at 20 mg/kg [9]: 45%
- ED50 [10]: 0.084 mg/kg

SMILES: c1ccc2c(c1)ncc1nc(-c3nn[nH]n3)cn12
- ED50 [11]: 0.089 mg/kg
- ED50 [12]: 0.012 mg/kg

SMILES: CCn1c(=O)c2c(C(=O)OC)c(C(=O)O)cn2c2ccccc21
- ED50 [13]: inactive

SMILES: O=C(O)c1cn2c(ccc3ccc(C(F)(F)F)cc32)n1
- ED50 [14]: 0.07 mg/kg

SMILES: CCOC(=O)c1cn2c(cc(Cl)c3ccc(OC)cc32)n1
- ED50 [15]: 8 mg/kg

SMILES: CCOC(=O)c1cn2c(n1)c(C#N)cc1ccccc12
- ED50 [4]: inactive

SMILES: CCn1c(=O)c2ccccc2n2cc(C(=O)O)nc12
- ED50 [16]: inactive

SMILES: O=C(O)c1nc2n(c1C(=O)N1CCOCC1)-c1ccccc1OC2
- ED50 [5]: inactive

SMILES: O=C(O)c1cn2c(ccc3cc([N+](=O)[O-])ccc32)n1
- ED50 [17]: 0.28 mg/kg

SMILES: CSc1cc2nc(C(=O)O)cn2c2ccccc12
- ED50 [18]: 0.046 mg/kg

SMILES: CCn1c(=O)c2cc(C(=O)O)cn2c2cc(C)c(C)cc21
- ED50 [19]: 0.03 mg/kg

SMILES: CCOC(=O)c1cn2c(cnc3cc(Cl)c(Cl)cc32)n1
- ED50 [4]: inactive

SMILES: COC(=O)c1nnn2c1c(=O)oc1ccccc12
- inhibition in vivo at 10 mg/kg [6]: 50%

SMILES: COc1ccc2c(Cl)cc3nc(C(=O)O)cn3c2c1
- ED50 [20]: 0.34 mg/kg
- ED50 [21]: 0.027 mg/kg

SMILES: CCCn1c(=O)c2nc(C(=O)OCC)cn2c2ccccc21
- ED50 [22]: 1.21 mg/kg

SMILES: O=C(O)c1cn2c(n1)sc1ccccc12
- ED50 [23]: 0.33 mg/kg

SMILES: CS1(=O)=Nc2nc(C(=O)O)cn2-c2ccccc21 (stereo not given)
- ED50 [24]: 2.59 mg/kg

SMILES: O=C(O)c1cn2c(cnc3ccccc32)n1 [DAZOQUINAST]
- ED50 [25]: 0.073 mg/kg
- ED50 [26]: 0.13 mg/kg

SMILES: CCc1ccc2c(Cl)cc3nc(C(=O)O)cn3c2c1
- ED50 [27]: 0.09 mg/kg

SMILES: Cl.Cl.NCc1cn2c(ccc3ccccc32)n1
- ED50 [28]: 0.976 mg/kg

SMILES: N#Cc1cn2c(n1)COc1ccccc1-2
- ED50 [29]: inactive

SMILES: CCOC(=O)c1cn2ccccc2n1
- ED50 [30]: inactive

SMILES: COc1ccc2ccc3nc(C(N)=O)cn3c2c1
- ED50 [3]: inactive

SMILES: CCOC(=O)c1cn2c(n1)c(=O)n(Cc1ccccc1)c1ccccc12
- ED50 [31]: inactive

SMILES: O=C(O)c1cn2c(ccc3c(Cl)cccc32)n1
- ED50 [32]: 3.74 mg/kg

SMILES: Cc1c(C(=O)O)nc2cc(Cl)c3ccccc3n12
- ED50 [3]: inactive
